Data taken from PubChem BioAssay AID330 (DTP/NCI, 2004).
“And” between values parts separate entries of the source, which are not always exact repeats. Equal entries are not always repeated. Toxic doses and inconclusive results are not listed. Rule for the calls: active = survival T/C of 150% or more; inactive = T/C below 125% in these data. Peptide text beside a SMILES is read from it.

Test system: P388 leukemia ip, CD2F1 mice, survival T/C
Experiment: NCI In Vivo Anticancer Drug Screen. Data for tumor model P388 Leukemia (intraperitoneal) in CD2F1 (CDF1) mice
Settings: endpoint: median survival time, higher = longer survival
Summary of the method: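 Mice carrying the transplanted tumor received test compound or vehicle. Survival was recorded in each group, and the value is the treated-group measurement divided by that of the vehicle-treated control group.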

[1] = dose: 12.5 mg/kg/injection, schedule: Q01DX009 (ip), vehicle: saline with Tween-80
[2] = dose: 25.0 mg/kg/injection, schedule: Q01DX009 (ip), vehicle: saline with Tween-80
[3] = dose: 50.0 mg/kg/injection, schedule: Q01DX009 (ip), vehicle: saline with Tween-80
[4] = dose: 100.0 mg/kg/injection, schedule: Q04DX003 (ip), vehicle: saline with Tween-80
[5] = dose: 50.0 mg/kg/injection, schedule: Q01DX005 (ip), vehicle: Klucel (hydroxypropylcellulose) (HPC)
[6] = dose: 100.0 mg/kg/injection, schedule: Q01DX005 (ip), vehicle: Klucel (hydroxypropylcellulose) (HPC)
[7] = dose: 200.0 mg/kg/injection, schedule: Q01DX005 (ip), vehicle: Klucel (hydroxypropylcellulose) (HPC)
[8] = dose: 200.0 mg/kg/injection, schedule: Q01DX009 (ip), vehicle: saline with Tween-80

Measured: T/C

COc1ccc(SS(=O)c2ccc(OC)cc2)cc1 (configuration not stated)
inactive: dose: 100.0 mg/kg/injection, schedule: Q04DX002 (ip), vehicle: saline with Tween-80 100 % of control | dose: 200.0 mg/kg/injection, schedule: Q04DX002 (ip), vehicle: saline with Tween-80 102 % of control | dose: 400.0 mg/kg/injection, schedule: Q04DX002 (ip), vehicle: saline with Tween-80 102 % of control

S=C(N=Nc1ccccc1)NNc1ccccc1
inactive: [1] 100 % of control | [2] 95 % of control | [3] 90 % of control | [4] 90 % of control | dose: 200.0 mg/kg/injection, schedule: Q04DX003 (ip), vehicle: saline with Tween-80 86 % of control | dose: 400.0 mg/kg/injection, schedule: Q04DX003 (ip), vehicle: saline with Tween-80 100 % of control

COC(=O)C(F)C(Br)C(=O)OC (configuration not stated)
inactive: [1] 111 % of control and 103 % of control | [2] 112 % of control and 105 % of control | [3] 123 % of control and 114 % of control and 115 % of control

CC1=CC(C)(C)N=C(N)N1
inactive: dose: 12.5 mg/kg/injection, schedule: Q01DX005 (ip), vehicle: saline 98 % of control | dose: 25.0 mg/kg/injection, schedule: Q01DX005 (ip), vehicle: saline 97 % of control | dose: 50.0 mg/kg/injection, schedule: Q01DX005 (ip), vehicle: saline 105 % of control and 91 % of control

C[n+]1ccccc1-c1nc(-c2cccc[n+]2C)nc(-c2cccc[n+]2C)n1
inactive: dose: 12.5 mg/kg/injection, schedule: Q01DX009 (ip), vehicle: Klucel (hydroxypropylcellulose) (HPC) 96 % of control | dose: 25.0 mg/kg/injection, schedule: Q01DX009 (ip), vehicle: Klucel (hydroxypropylcellulose) (HPC) 88 % of control

c1ccc(Cn2nnnc2Nc2ccccc2)cc1
inactive: dose: 25.0 mg/kg/injection, schedule: Q01DX005 (ip), vehicle: Klucel (hydroxypropylcellulose) (HPC) 94 % of control | [5] 88 % of control and 97 % of control | [6] 94 % of control | [7] 90 % of control

CCOC(=O)C12OC(=O)CC(NC1C(=O)OC(C)(C)C)C2O (configuration not stated)
inactive: dose: 60.0 mg/kg/injection, schedule: Q01DX005 (ip), vehicle: saline 98 % of control | dose: 120.0 mg/kg/injection, schedule: Q01DX005 (ip), vehicle: saline 91 % of control | dose: 240.0 mg/kg/injection, schedule: Q01DX005 (ip), vehicle: saline 104 % of control

CC(C)CCCCCc1ccc(OCCOc2ccc(C(=O)Nc3ccc(S(=O)(=O)F)cc3N)cc2)cc1
inactive: dose: 50.0 mg/kg/injection, schedule: Q04DX003 (ip), vehicle: saline sonified 100 % of control | dose: 100.0 mg/kg/injection, schedule: Q04DX003 (ip), vehicle: saline sonified 100 % of control | dose: 200.0 mg/kg/injection, schedule: Q04DX003 (ip), vehicle: saline sonified 90 % of control

CC(C)CC(NC(=O)C(N)CC(=O)O)C(=O)O (stereo not drawn) (H-Asp-Leu-OH; configuration not given here)
inactive: [5] 100 % of control | [6] 98 % of control | [7] 99 % of control

CC(C)(C)OC(=O)CS(=O)Nc1ccccc1O (configuration not stated)
inactive: dose: 60.0 mg/kg/injection, schedule: Q01DX005 (ip), vehicle: Klucel (hydroxypropylcellulose) (HPC) 105 % of control | dose: 120.0 mg/kg/injection, schedule: Q01DX005 (ip), vehicle: Klucel (hydroxypropylcellulose) (HPC) 108 % of control | dose: 240.0 mg/kg/injection, schedule: Q01DX005 (ip), vehicle: Klucel (hydroxypropylcellulose) (HPC) 97 % of control

COC(=O)CCCCCCCCCCCCCCCCC(=O)O
inactive: dose: 50.0 mg/kg/injection, schedule: Q01DX009 (ip), vehicle: Klucel (hydroxypropylcellulose) (HPC) 99 % of control | dose: 100.0 mg/kg/injection, schedule: Q01DX009 (ip), vehicle: Klucel (hydroxypropylcellulose) (HPC) 94 % of control | dose: 200.0 mg/kg/injection, schedule: Q01DX009 (ip), vehicle: Klucel (hydroxypropylcellulose) (HPC) 93 % of control

CC1(C)C(=O)C=CC2(C)C1CC(O)C1(C)C2CCC2(C)C(c3ccoc3)OC(=O)C3OC321 (configuration not stated)
inactive: dose: 1.5 mg/kg/injection, schedule: Q01DX009 (ip), vehicle: Klucel (hydroxypropylcellulose) (HPC) 98 % of control | dose: 3.0 mg/kg/injection, schedule: Q01DX009 (ip), vehicle: Klucel (hydroxypropylcellulose) (HPC) 103 % of control | dose: 6.0 mg/kg/injection, schedule: Q01DX009 (ip), vehicle: Klucel (hydroxypropylcellulose) (HPC) 101 % of control | dose: 12.0 mg/kg/injection, schedule: Q01DX009 (ip), vehicle: Klucel (hydroxypropylcellulose) (HPC) 102 % of control

Cc1ccc(SNc2ccccc2)cc1
inactive: dose: 50.0 mg/kg/injection, schedule: Q04DX003 (ip), vehicle: saline with Tween-80 96 % of control | [4] 96 % of control

[Se]c1nc(N2CCOCC2)ncc1-c1ccccc1
inactive: dose: 6.25 mg/kg/injection, schedule: Q01DX009 (ip), vehicle: saline with Tween-80 100 % of control | [1] 95 % of control | [2] 95 % of control | [8] 92 % of control

OCC(O)c1c(-c2ccc(Cl)cc2)c(-c2ccccc2)c2n1CCC2 (configuration not stated)
inactive: [5] 97 % of control | [6] 100 % of control | [7] 90 % of control

N#Cc1c(C(=O)NN)c2c(-c3ccc4ccccc4c3)n[nH]c(=O)c2[nH]c1=O
inactive: dose: 50.0 mg/kg/injection, schedule: Q01DX005 (ip), vehicle: saline with Tween-80 91 % of control | dose: 100.0 mg/kg/injection, schedule: Q01DX005 (ip), vehicle: saline with Tween-80 95 % of control | dose: 200.0 mg/kg/injection, schedule: Q01DX005 (ip), vehicle: saline with Tween-80 86 % of control

Nc1ccn(C2CC(O)C(CO)O2)c(=O)n1 (configuration not stated)
inactive: dose: 4.6 mg/kg/injection, schedule: Q01DX009 (ip), vehicle: water 95 % of control | dose: 9.38 mg/kg/injection, schedule: Q01DX009 (ip), vehicle: water 100 % of control | dose: 18.75 mg/kg/injection, schedule: Q01DX009 (ip), vehicle: water 105 % of control and 87 % of control | dose: 37.5 mg/kg/injection, schedule: Q01DX009 (ip), vehicle: water 112 % of control | dose: 75.0 mg/kg/injection, schedule: Q01DX009 (ip), vehicle: water 96 % of control | dose: 150.0 mg/kg/injection, schedule: Q01DX009 (ip), vehicle: water 103 % of control

O=C(O)c1ccc(N=Cc2ccc3c(c2)OCO3)cc1
inactive: dose: 25.0 mg/kg/injection, schedule: Q04DX003 (ip), vehicle: saline 100 % of control | dose: 50.0 mg/kg/injection, schedule: Q04DX003 (ip), vehicle: saline 102 % of control | dose: 100.0 mg/kg/injection, schedule: Q04DX003 (ip), vehicle: saline 96 % of control | dose: 200.0 mg/kg/injection, schedule: Q04DX003 (ip), vehicle: saline 94 % of control

OCc1c(Cl)nc2n1CCS2
inactive: dose: 25.0 mg/kg/injection, schedule: Q01DX001 (ip), vehicle: saline with Tween-80 104 % of control | dose: 50.0 mg/kg/injection, schedule: Q01DX001 (ip), vehicle: saline with Tween-80 104 % of control

CC1(C)OC(=O)C(=Cc2ccc(-c3ccccc3[N+](=O)[O-])o2)C(=O)O1
inactive: [5] 92 % of control | [6] 105 % of control | [7] 100 % of control

CCOC(=O)COc1cc2c(cc1C(CC)c1ccccc1)OCO2 (configuration not stated)
inactive: [5] 97 % of control | [6] 102 % of control | [7] 102 % of control

CCCCC(O)(CCCC)/C(C)=N/O
inactive: [3] 94 % of control | dose: 100.0 mg/kg/injection, schedule: Q01DX009 (ip), vehicle: saline with Tween-80 91 % of control | [8] 87 % of control

O=C(O)/C(Cl)=C(\Cl)C(=O)Nc1cccc([N+](=O)[O-])c1
inactive: dose: 7.5 mg/kg/injection, schedule: Q01DX005 (ip), vehicle: saline with Tween-80 100 % of control | dose: 15.0 mg/kg/injection, schedule: Q01DX005 (ip), vehicle: saline with Tween-80 101 % of control | dose: 60.0 mg/kg/injection, schedule: Q01DX005 (ip), vehicle: saline with Tween-80 100 % of control and 103 % of control | dose: 120.0 mg/kg/injection, schedule: Q01DX005 (ip), vehicle: saline with Tween-80 106 % of control
